Data reported in patent US20150291598A1 (NOVARTIS AG, priority 2012, published 2015).

tested on: P. falciparum (NF54 or 3D7 strain); assay: Assay for P. falciparum proliferation in infected human blood cells (SYBR Green); format: cell-based, Plasmodium falciparum; settings: NF54 or 3D7 infected human erythrocytes, 72 hours; read-out: EC50 (nM), inhibitory efficacy in delaying P. falciparum proliferation in infected human blood cells
Method in brief: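 Infected erythrocytes (NF54 or 3D7; final 2.5% hematocrit, 0.3% parasitemia) were incubated with compounds for 72 h at 37 °C in low oxygen (3% O2, 4% CO2, 93% N2).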

Row | EC50 | Compound
1 | 607 nM | O=C(c1cn2c(-c3ccc(C(F)(F)F)cc3)cnc2cn1)N1CCOc2ccccc21 [Compound 306, ({3-[4-(trifluoromethyl)phenyl]imidazo[1,2-a]pyrazin-6-yl}carbonyl)-3,4-dihydro-2H-1,4-benzoxazine]

same assay, conditions: Plasmodium falciparum, Erythrocyte, 72 h, NF54 or 3D7 infected human erythrocytes, 72 hours; read-out: EC50 (nM), inhibitory efficacy in delaying P. falciparum proliferation in infected human blood cells

Row | EC50 | Compound
2 | 972 nM | Cc1ccc(N(C)Cc2cn3c(-c4ccc(C(F)(F)F)cc4)cnc3cn2)nc1 [Compound 287, N,5-dimethyl-N-({3-[4-(trifluoromethyl)phenyl]imidazo[1,2-a]pyrazin-6-yl}methyl)pyridin-2-amine]
3 | 565 nM | COc1ncc(N(C)C(=O)c2cn3c(-c4ccc(C(F)(F)F)cc4)cnc3cn2)cc1C [Compound 288, N-(6-methoxy-5-methylpyridin-3-yl)-N-methyl-3-[4-(trifluoromethyl)phenyl]imidazo[1,2-a]pyrazine-6-carboxamide]
4 | 1500 nM | Cc1ccc(C(=O)N(C)c2cn3c(-c4ccc(C(F)(F)F)cc4)cnc3cn2)cc1 [Compound 289, N,4-dimethyl-N-{3-[4-(trifluoromethyl)phenyl]imidazo[1,2-a]pyrazin-6-yl}benzamide]
5 | 784 nM | COc1cccc(N(C)C(=O)c2cn3c(-c4ccc(C(F)(F)F)cc4)cnc3cn2)n1 [Compound 290, N-(6-methoxypyridin-2-yl)-N-methyl-3-[4-(trifluoromethyl)phenyl]imidazo[1,2-a]pyrazine-6-carboxamide]
6 | 1160 nM | CN(C)CCNC(=O)c1ccc(-c2cnc3cnc(C(=O)N(C)c4ccc(C#N)cc4)cn23)cc1 [Compound 291, N-(4-cyanophenyl)-3-(4-{[2-(dimethylamino)ethyl]carbamoyl}phenyl)-N-methylimidazo[1,2-a]pyrazine-6-carboxamide]
7 | 76 nM | CN(C(=O)c1cn2c(-c3ccc(C(F)(F)F)cc3)cnc2cn1)c1ccc(C#N)cc1F [Compound 293, N-(4-cyano-2-fluorophenyl)-N-methyl-3-[4-(trifluoromethyl)phenyl]imidazo[1,2-a]pyrazine-6-carboxamide]
8 | 2120 nM | CN(C(=O)N1CCC(C)(C)CC1)c1cn2c(-c3ccc(C(F)(F)F)cc3)cnc2cn1 [Compound 294, N,4,4-trimethyl-N-{3-[4-(trifluoromethyl)phenyl]imidazo[1,2-a]pyrazin-6-yl}piperidine-1-carboxamide]
9 | 237 nM | CN(C(=O)c1cn2c(-c3ccc(NC(=O)CN)nc3)cnc2cn1)c1ccc(C#N)cc1 [Compound 295, 3-[6-(2-aminoacetamido)pyridin-3-yl]-N-(4-cyanophenyl)-N-methylimidazo[1,2-a]pyrazine-6-carboxamide]
10 | 1280 nM | COc1cc(N(C)C(=O)c2cn3c(-c4ccc(C(F)(F)F)cc4)cnc3cn2)ccn1 [Compound 296, N-(2-methoxypyridin-4-yl)-N-methyl-3-[4-(trifluoromethyl)phenyl]imidazo[1,2-a]pyrazine-6-carboxamide]
11 | 1290 nM | Cc1ccc(-c2cnc3cnc(C(=O)N(C)c4ccc(C#N)cc4)cn23)cn1 [Compound 297, N-(4-cyanophenyl)-N-methyl-3-(6-methylpyridin-3-yl)imidazo[1,2-a]pyrazine-6-carboxamide]
12 | 1070 nM | CCn1nccc1N(C)C(=O)c1cn2c(-c3ccc(C(F)(F)F)cc3)cnc2cn1 [Compound 298, N-(1-ethyl-1H-pyrazol-5-yl)-N-methyl-3-[4-(trifluoromethyl)phenyl]imidazo[1,2-a]pyrazine-6-carboxamide]
13 | 1130 nM | Cc1cc(N(C)C(=O)c2cn3c(-c4ccc(C(F)(F)F)cc4)cnc3cn2)ccn1 [Compound 299, N-methyl-N-(2-methylpyridin-4-yl)-3-[4-(trifluoromethyl)phenyl]imidazo[1,2-a]pyrazine-6-carboxamide]
14 | 2990 nM | CN(C(=O)c1cn2c(-c3ccc(NC(C)(C)CNC(=O)OC(C)(C)C)cc3)cnc2cn1)c1ccc(C#N)cc1 [Compound 300, tert-butyl N-{2-[(4-{6-[(4-cyanophenyl)(methyl)carbamoyl]imidazo[1,2-a]pyrazin-3-yl}phenyl)amino]-2-methylpropyl}carbamate]
15 | 1200 nM | CN(C(=O)c1cn2c(-c3ccc4[nH]ccc4c3)cnc2cn1)c1ccc(Cl)nc1 [Compound 301, N-(6-chloropyridin-3-yl)-3-(1H-indol-5-yl)-N-methylimidazo[1,2-a]pyrazine-6-carboxamide]
16 | 1850 nM | COc1ccc(-c2ccc(N(C)C(=O)c3cn4c(-c5ccc(OC)cc5C)cnc4cn3)cn2)c(C)c1 [Compound 302, 3-(4-methoxy-2-methylphenyl)-N-[6-(4-methoxy-2-methylphenyl)pyridin-3-yl]-N-methylimidazo[1,2-a]pyrazine-6-carboxamide]
17 | 1280 nM | COc1ccncc1N(C)C(=O)c1cn2c(-c3ccc(C(F)(F)F)cc3)cnc2cn1 [Compound 303, N-(4-methoxypyridin-3-yl)-N-methyl-3-[4-(trifluoromethyl)phenyl]imidazo[1,2-a]pyrazine-6-carboxamide]
18 | 452 nM | Cc1cc(N(C)C(=O)c2cn3c(-c4ccc(C(F)(F)F)cc4)cnc3cn2)cnc1Cl [Compound 304, N-(6-chloro-5-methylpyridin-3-yl)-N-methyl-3-[4-(trifluoromethyl)phenyl]imidazo[1,2-a]pyrazine-6-carboxamide]

Row | EC50 | Compound
19 | 457 nM | O=C(c1cn2c(-c3ccc(C(F)(F)F)cc3)cnc2cn1)N1CCOc2cc(F)ccc21 [Compound 305, 7-fluoro-4-({3-[4-(trifluoromethyl)phenyl]imidazo[1,2-a]pyrazin-6-yl}carbonyl)-3,4-dihydro-2H-1,4-benzoxazine]
20 | 1070 nM | CN(C(=O)c1cn2c(-c3ccc(NC(=O)C4(CN)CC4)cc3)cnc2cn1)c1ccc(C#N)cc1 [Compound 307, 3-(4-{[1-(aminomethyl)cyclopropane]amido}phenyl)-N-(4-cyanophenyl)-N-methylimidazo[1,2-a]pyrazine-6-carboxamide]
21 | 2020 nM | CN(C(=O)c1ccc(C(F)(F)F)nc1)c1cn2c(-c3ccc(C(F)(F)F)cc3)cnc2cn1 [Compound 308, N-methyl-6-(trifluoromethyl)-N-{3-[4-(trifluoromethyl)phenyl]imidazo[1,2-a]pyrazin-6-yl}pyridine-3-carboxamide]
22 | 611 nM | Cc1ccncc1N(C)C(=O)c1cn2c(-c3ccc(C(F)(F)F)cc3)cnc2cn1 [Compound 309, N-methyl-N-(4-methylpyridin-3-yl)-3-[4-(trifluoromethyl)phenyl]imidazo[1,2-a]pyrazine-6-carboxamide]
23 | 2480 nM | CCOc1ccnc(N(C)C(=O)c2cn3c(-c4ccc(C(F)(F)F)cc4)cnc3cn2)c1 [Compound 310, N-(4-ethoxypyridin-2-yl)-N-methyl-3-[4-(trifluoromethyl)phenyl]imidazo[1,2-a]pyrazine-6-carboxamide]
24 | 2780 nM | COc1ccc(C(=O)N(C)c2cn3c(-c4ccc(C(F)(F)F)cc4)cnc3cn2)cc1 [Compound 311, 4-methoxy-N-methyl-N-{3-[4-(trifluoromethyl)phenyl]imidazo[1,2-a]pyrazin-6-yl}benzamide]
25 | 2640 nM | CN(C(=O)c1cn2c(-c3cnc4[nH]ccc4c3)cnc2cn1)c1ccc(Cl)nc1 [Compound 312, N-(6-chloropyridin-3-yl)-N-methyl-3-{1H-pyrrolo[2,3-b]pyridin-5-yl}imidazo[1,2-a]pyrazine-6-carboxamide]
26 | 1320 nM | CN(C(=O)c1cn2c(-c3ccc(C(F)(F)F)cc3)cnc2cn1)c1ccc(-n2cncn2)cc1 [Compound 313, N-methyl-N-[4-(1H-1,2,4-triazol-1-yl)phenyl]-3-[4-(trifluoromethyl)phenyl]imidazo[1,2-a]pyrazine-6-carboxamide]
27 | 1040 nM | CN(C(=O)c1cn2c(-c3ccc(NS(C)(=O)=O)cc3)cnc2cn1)c1ccc(C#N)cc1 [Compound 314, N-(4-cyanophenyl)-3-(4-methanesulfonamidophenyl)-N-methylimidazo[1,2-a]pyrazine-6-carboxamide]
28 | 2420 nM | N#Cc1ccc2c(c1)OCCN2C(=O)c1cn2c(-c3ccc(C(F)(F)F)cc3)cnc2cn1 [Compound 315, 4-({3-[4-(trifluoromethyl)phenyl]imidazo[1,2-a]pyrazin-6-yl}carbonyl)-3,4-dihydro-2H-1,4-benzoxazine-7-carbonitrile]
29 | 1890 nM | CS(=O)(=O)c1ccc2c(c1)CCCN2C(=O)c1cn2c(-c3ccc(C(F)(F)F)cc3)cnc2cn1 [Compound 316, 6-methanesulfonyl-1-({3-[4-(trifluoromethyl)phenyl]imidazo[1,2-a]pyrazin-6-yl}carbonyl)-1,2,3,4-tetrahydroquinoline]
30 | 1900 nM | CN(C(=O)c1cn2c(-c3ccc(C(F)(F)F)cc3)cnc2cn1)c1ccc(S(C)(=O)=O)cn1 [Compound 317, N-(5-methanesulfonylpyridin-2-yl)-N-methyl-3-[4-(trifluoromethyl)phenyl]imidazo[1,2-a]pyrazine-6-carboxamide]
31 | 2310 nM | COC(=O)Nc1ccc(-c2cnc3cnc(CN(C)c4ccc(C)cn4)cn23)cc1 [Compound 318, methyl N-[4-(6-{[methyl(5-methylpyridin-2-yl)amino]methyl}imidazo[1,2-a]pyrazin-3-yl)phenyl]carbamate]
32 | 3140 nM | CN(C(=O)c1cn2c(-c3cc4ccccc4[nH]3)cnc2cn1)c1ccc(-c2cc3ccccc3[nH]2)nc1 [Compound 319, 3-(1H-indol-2-yl)-N-[6-(1H-indol-2-yl)pyridin-3-yl]-N-methylimidazo[1,2-a]pyrazine-6-carboxamide]
33 | 2210 nM | Cc1n[nH]c2ccc(-c3cnc4cnc(C(=O)N(C)c5ccc(Cl)nc5)cn34)cc12 [Compound 320, N-(6-chloropyridin-3-yl)-N-methyl-3-(3-methyl-1H-indazol-5-yl)imidazo[1,2-a]pyrazine-6-carboxamide]
34 | 2260 nM | CN(C(=O)c1cn2c(-c3ccc(C(F)(F)F)cc3)cnc2cn1)c1ccc(N2CCOCC2)cn1 [Compound 321, N-methyl-N-[5-(morpholin-4-yl)pyridin-2-yl]-3-[4-(trifluoromethyl)phenyl]imidazo[1,2-a]pyrazine-6-carboxamide]
